Assay results taken from ChEMBL document CHEMBL3046376, “Epimerization of epigallocatechin gallate to gallocatechin gallate and its anti-diabetic activity” (2013).
Activity calls are given as the source filed them. The calls are words filed in the database; no cut-off is given here.

Columns and labels:
Rattus norvegicus [1] = test: Antidiabetic activity in Sprague-Dawley Rattus norvegicus (rat) STZ-induced diabetic model assessed as decrease in oral glucose-induced plasma insulin level at 5% administered QD for 6 weeks prior to glucose-challenge measured after 120 min by oral glucose tolerance test relative to control; type: functional, organism-based
Rattus norvegicus [2] = test: Antidiabetic activity in Sprague-Dawley Rattus norvegicus (rat) assessed as STZ-induced fasting plasma triglyceride level at 5% administered QD for 12 weeks (reference value: 54.4 +/- 12.3 […]); type: functional
Rattus norvegicus [3] = test: Antidiabetic activity in Sprague-Dawley Rattus norvegicus (rat) assessed as STZ-induced fasting plasma free fatty acid level at 5% administered QD for 12 weeks (reference value: 230.8 +/- 16.6 uM); type: functional
Rattus norvegicus [4] = test: Antidiabetic activity in Sprague-Dawley Rattus norvegicus (rat) assessed as STZ-induced fasting plasma glucose level at 5% administered QD for 12 weeks (reference value: 318.4 +/- 11.9 mg/dl); type: functional
Rattus norvegicus [5] = test: Antidiabetic activity in Sprague-Dawley Rattus norvegicus (rat) STZ-induced diabetic model assessed as decrease in oral glucose-induced plasma insulin level at 5% administered QD for 12 weeks prior to glucose-challenge measured after 120 min by oral glucose tolerance test relative to control; type: functional, organism-based
Rattus norvegicus [6] = test: Antidiabetic activity in Sprague-Dawley Rattus norvegicus (rat) assessed as STZ-induced body weight at 5% administered QD for 12 weeks (reference value: 268.6 +/- 9.3 g); type: functional
Rattus norvegicus [7] = test: Antidiabetic activity in Sprague-Dawley Rattus norvegicus (rat) STZ-induced diabetic model assessed as decrease in oral glucose-induced plasma glucose level at 5% administered QD for 12 weeks prior to glucose-challenge measured after 120 min by oral glucose tolerance test relative to control; type: functional, organism-based
Rattus norvegicus [8] = test: Antidiabetic activity in Sprague-Dawley Rattus norvegicus (rat) assessed as STZ-induced fasting plasma insulin level at 5% administered QD for 12 weeks (reference value: 13.5 +/- 1.6 uU/ml); type: functional
Rattus norvegicus [9] = test: Antidiabetic activity in Sprague-Dawley Rattus norvegicus (rat) STZ-induced diabetic model assessed as decrease in oral glucose-induced plasma glucose level at 5% administered QD for 6 weeks prior to glucose-challenge measured after 120 min by oral glucose tolerence test relative to control; type: functional, organism-based

Row | Structure (SMILES) | Activity (Rattus norvegicus [1]) | Activity (Rattus norvegicus [2]) [mg/dL] | Activity (Rattus norvegicus [3]) [µM] | Activity (Rattus norvegicus [4]) [mg/dL] | Activity (Rattus norvegicus [5]) | Activity (Rattus norvegicus [6]) [g] | Activity (Rattus norvegicus [7]) | Activity (Rattus norvegicus [8]) [uU/ml] | Activity (Rattus norvegicus [9])
1 | O=C(O[C@@H]1Cc2c(O)cc(O)cc2O[C@@H]1c1cc(O)c(O)c(O)c1)c1cc(O)c(O)c(O)c1 [EPIGALOCATECHIN GALLATE] | Active | 47.9 | 151.1 | 169.6 | Active | 251.5 | Active | 10.2 | Active
2 | O=C(O[C@@H]1Cc2c(O)cc(O)cc2O[C@H]1c1cc(O)c(O)c(O)c1)c1cc(O)c(O)c(O)c1 [GALLOCATECHIN GALLATE] | Active | 38.3 | 133.5 | 154.3 | Active | 247.7 | Active | 8.5 | Active
